Experimental data reported in patent publication US20230041743A1, “1,8-NAPHTHYRIDIN-2-ONE COMPOUNDS FOR THE TREATMENT OF AUTOIMMUNE DISEASE” (Hoffmann-La Roche Inc., priority 2019, published 2023).

Molecular target: T1, human TLR9 (Homo sapiens, UniProt Q9NR96)
T1 construct: host or cells: HEK293 (HEK-Blue hTLR9)
T1 sequence (Q9NR96 26-1032): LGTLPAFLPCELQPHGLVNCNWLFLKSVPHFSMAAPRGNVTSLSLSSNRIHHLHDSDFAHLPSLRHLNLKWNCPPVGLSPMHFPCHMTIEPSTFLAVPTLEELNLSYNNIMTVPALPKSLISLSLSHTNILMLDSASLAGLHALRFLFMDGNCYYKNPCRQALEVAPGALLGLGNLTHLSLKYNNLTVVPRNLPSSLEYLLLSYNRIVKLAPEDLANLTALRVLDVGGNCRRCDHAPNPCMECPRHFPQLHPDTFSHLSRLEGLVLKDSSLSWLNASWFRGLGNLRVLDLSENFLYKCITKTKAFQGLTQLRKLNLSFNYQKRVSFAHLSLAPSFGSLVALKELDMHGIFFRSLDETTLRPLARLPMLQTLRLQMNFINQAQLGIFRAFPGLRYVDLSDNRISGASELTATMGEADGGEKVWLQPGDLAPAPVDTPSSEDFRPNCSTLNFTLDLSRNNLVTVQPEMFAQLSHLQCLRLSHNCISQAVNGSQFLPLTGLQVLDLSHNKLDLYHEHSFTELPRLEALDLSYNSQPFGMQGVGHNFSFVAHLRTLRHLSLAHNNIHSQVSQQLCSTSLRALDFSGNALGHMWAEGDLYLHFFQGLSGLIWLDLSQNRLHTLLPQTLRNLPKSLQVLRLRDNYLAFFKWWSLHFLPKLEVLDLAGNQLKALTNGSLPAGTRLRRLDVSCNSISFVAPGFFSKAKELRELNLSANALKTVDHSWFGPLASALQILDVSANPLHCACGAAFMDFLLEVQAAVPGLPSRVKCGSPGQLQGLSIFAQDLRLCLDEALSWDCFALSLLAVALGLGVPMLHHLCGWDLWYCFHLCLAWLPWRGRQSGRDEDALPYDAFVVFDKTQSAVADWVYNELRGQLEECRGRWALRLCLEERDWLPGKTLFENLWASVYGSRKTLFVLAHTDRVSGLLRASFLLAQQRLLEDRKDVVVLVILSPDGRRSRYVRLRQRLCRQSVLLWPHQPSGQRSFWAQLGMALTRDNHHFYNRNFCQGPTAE
Assay: HEK293-Blue-hTLR-9 cells assay (SEAP reporter, ODN2006 stimulation)
Type: cell-based
Details: HEK293-Blue-hTLR9 cells, ODN2006 ligand, 20 hrs incubation; read-out: HEK/hTLR9 IC50
Description: HEK293-Blue-hTLR-9 Cells Assay:
A stable HEK293-Blue-hTLR-9 cell line was purchased from InvivoGen (Cat. #: hkb-htlr9, San Diego, Calif., USA). These cells were originally designed for studying the stimulation of human TLR9 by monitoring the activation of NF-κB. A SEAP (secreted embryonic alkaline phosphatase) reporter gene was placed under the control of the IFN-β minimal promoter fused to five NF-κB and AP-1-binding sites. The SEAP was induced by activating NF-κB and AP-1 via stimulating HEK-Blue hTLR9 cells with TLR9 ligands. Therefore the reporter expression was declined by TLR9 antagonist under the stimulation of a ligand, such as ODN2006 (Cat. #: tlrl-2006-1, Invivogen, San Diego, Calif., USA), for incubation of 20 hrs. The cell culture supernatant SEAP reporter activity was determined using QUANTI-Blue™ kit (Cat. #: rep-qb1, Invivogen, San Diego, Calif., USA) at a wavelength of 640 nm, a detection medium that turns purple or blue in the presence of alkaline phosphatase.
HEK293-Blue-hTLR9 cells were incubated at a density of 250,000˜450,000 cells/mL in a volume of 170 μL in a 96-well plate in Dulbecco's Modified Eagle's medium (DMEM) containing 4.5 g/L glucose, 50 U/mL penicillin, […], 2 mM L-glutamine, 10% (v/v) heat-inactivated fetal bovine serum with addition of 20 μL test compound in a serial dilution in the presence of final DMSO at 1% and 10 μL of 20 uM ODN2006 in above DMEM, perform incubation under 37° C. in a CO2 incubator for 20 hrs. Then 20 μL of the supernatant from each well was incubated with 180 μL Quanti-blue substrate solution at 37° C. for 2 h and the absorbance was read at 620˜655 nm using a spectrophotometer. The signaling pathway that TLR9 activation leads to downstream NF-κB activation has been widely accepted, and therefore similar reporter assay was modified for evaluating TLR9 antagonist.

Row | SMILES | IC50 [nM]
1 | C[C@@H]1CN(c2cc(=O)n(C)c3ncccc23)C[C@@H]2c3ccc(OCCN(C)C)cc3CN12 [Example 23, 4-[(4R,10bS)-8-[2-(dimethylamino)ethoxy]-4-methyl-3,4,6,10b-tetrahydro-1H-pyrazino[2,1-a]isoindol-2-yl]-1-methyl-1,8-naphthyridin-2-one] | 213
2 | COC[C@@H]1CNCCN1c1ccc2c(c1)CN1[C@H](C)CN(c3cc(=O)n(C)c4ncccc34)C[C@H]21 [Example 10, 4-[(4R,10bS)-8-[(2S)-2-(methoxymethyl)piperazin-1-yl]-4-methyl-3,4,6,10b-tetrahydro-1H-pyrazino[2,1-a]isoindol-2-yl]-1-methyl-1,8-naphthyridin-2-one] | 248
3 | C[C@@H]1CN(c2cc(=O)n(C)c3ncccc23)C[C@@H]2c3ccc([C@@H]4C[C@H]5COC[C@@H](C4)N5)cc3CN12 [Example 28B, 4-[(4R,10bS)-4-methyl-8-(exo-3-oxa-9-azabicyclo[3.3.1]nonan-7-yl)-3,4,6,10b-tetrahydro-1H-pyrazino[2,1-a]isoindol-2-yl]-1-methyl-1,8-naphthyridin-2-one] | 255
4 | C[C@@H]1CN(c2ccc3c(c2)CN2[C@H](C)CN(c4cc(=O)n(C)c5ncccc45)C[C@H]32)CCN1 [Example 14, 4-[(4R,10bS)-4-methyl-8-[(3R)-3-methylpiperazin-1-yl]-3,4,6,10b-tetrahydro-1H-pyrazino[2,1-a]isoindol-2-yl]-1-methyl-1,8-naphthyridin-2-one] | 144
5 | C[C@@H]1CN(c2cc(=O)n(C)c3ncccc23)C[C@@H]2c3ccc(N4CCN[C@@H](C)C4)cc3CN12 [Example 13, 4-[(4R,10bS)-4-methyl-8-[(3S)-3-methylpiperazin-1-yl]-3,4,6,10b-tetrahydro-1H-pyrazino[2,1-a]isoindol-2-yl]-1-methyl-1,8-naphthyridin-2-one] | 186
6 | C[C@@H]1CN(c2cc(=O)n(C)c3ncccc23)C[C@@H]2c3ccc(N4CCC(C)(N)CC4)cc3CN12 [Example 18, 4-[(4R,10bS)-8-(4-amino-4-methyl-1-piperidyl)-4-methyl-3,4,6,10b-tetrahydro-1H-pyrazino[2,1-a]isoindol-2-yl]-1-methyl-1,8-naphthyridin-2-one] | 163
7 | C[C@@H]1CN(c2cc(=O)n(C)c3ncccc23)C[C@@H]2c3ccc(C4CCNCC4)cc3CN12 [Example 24, 4-[(4R,10bS)-4-methyl-8-(4-piperidyl)-3,4,6,10b-tetrahydro-1H-pyrazino[2,1-a]isoindol-2-yl]-1-methyl-1,8-naphthyridin-2-one] | 156

Stronger by IC50, values ahead:

Row | IC50 [nM] | SMILES
8 | 88 | C[C@@H]1CN(c2cc(=O)n(C)c3ncccc23)C[C@@H]2c3ccc(N4CCOC5(CNC5)C4)cc3CN12 [Example 11, 4-[(4R,10bS)-4-methyl-8-(5-oxa-2,8-diazaspiro[3.5]nonan-8-yl)-3,4,6,10b-tetrahydro-1H-pyrazino[2,1-a]isoindol-2-yl]-1-methyl-1,8-naphthyridin-2-one]
9 | 84 | C[C@@H]1CN(c2cc(=O)n(C)c3ncccc23)C[C@@H]2c3ccc(N4CCC[C@](C)(N)C4)cc3CN12 [Example 15, 4-[(4R,10bS)-8-[(3S)-3-amino-3-methyl-1-piperidyl]-4-methyl-3,4,6,10b-tetrahydro-1H-pyrazino[2,1-a]isoindol-2-yl]-1-methyl-1,8-naphthyridin-2-one]
10 | 96 | C[C@@H]1CN(c2cc(=O)n(C)c3ncccc23)C[C@@H]2c3ccc(N4C[C@H]5C[C@@H]4CN5)cc3CN12 [Example 20, 4-[(4R,10bS)-8-[(1R,4R)-2,5-diazabicyclo[2.2.1]heptan-2-yl]-4-methyl-3,4,6,10b-tetrahydro-1H-pyrazino[2,1-a]isoindol-2-yl]-1-methyl-1,8-naphthyridin-2-one]
11 | 113 | C[C@@H]1CN(c2cc(=O)n(C)c3ncccc23)C[C@@H]2c3ccc(N4CCOC[C@H](N)C4)cc3CN12 [Example 22, 4-[(4R,10bS)-8-[(6R)-6-amino-1,4-oxazepan-4-yl]-4-methyl-3,4,6,10b-tetrahydro-1H-pyrazino[2,1-a]isoindol-2-yl]-1-methyl-1,8-naphthyridin-2-one]
12 | 132 | C[C@@H]1CN(c2cc(=O)n(C)c3ncccc23)C[C@@H]2c3ccc(C4CCNC4)cc3CN12 (stereo partly drawn) [Example 26, 4-[(4R,10bS)-4-methyl-8-pyrrolidin-3-yl-3,4,6,10b-tetrahydro-1H-pyrazino[2,1-a]isoindol-2-yl]-1-methyl-1,8-naphthyridin-2-one]
